Data on 2 compounds can be found in patent EP1091938B1, “ANTIHISTAMINIC PIPERIDINE DERIVATIVES AND INTERMEDIATES FOR THE PREPARATION THEREOF” (Aventisub II Inc., priority 1998, dated 2000).

Data set [1] concerns the target T1, H1-histaminergic receptors (Rattus norvegicus, UniProt P31390).
T1 construct: The brains of young male rats are removed; The cortici are dissected; from tissue; host or cells: rat brain cortex membrane homogenate
In words: [3H] pyrilamine binding in rat cortex membranes. The settings on record: displacement of 3H pyrilamine (2 nM final), rat cortex homogenate, 30 minute incubation at room temperature; Ki from IC50 with the Cheng-Prusoff equation. The protocol: Antihistaminic potential is measured by affinity of a test compound for [^3H] pyrilamine binding sites associated with the antagonist component of H1-histaminergic receptors in animal brain membranes. Affinity for this receptor is indicative of the potential of a test compound to interact with central and peripheral H1-histaminergic receptors.
The following method is used to determine the affinity of test compounds for [^3H] pyrilamine binding sites in rat cortex.
The brains of young male rats are removed. The cortici are dissected and stored at -20°C or immediately used. The tissue is homogenized in 10 ml of ice-cold […] K/NaPO4 buffer (pH 7.4) using a Polytron (setting 6 for 15 seconds). […]
The brains of young male rats are removed. […] The filters are either transferred to scintillation vials and 10 ml Quicksafe A is added for liquid scintillation spectrometry or a thin layer of solid scintillant is melted onto the filters and the filters then counted using a betaplate beta counter. Specific binding of ^3H pyrilamine is measured as the excess over blanks taken in the presence of 2.10-6 M promethazine. Protein content of the membranes is determined by the method of Lowry et al., J. Biol. Chem. 193, 265-275 (1951). Displacement curves are analyzed using the GraphPad (GraphPad Software, Inc.) or similar program to obtain Hill slopes and IC50 values. […]
(In a radioligand displacement assay an active substance lowers the binding of a labelled ligand.)

For data set [2] the following is noted: extent of first pass metabolism to two primary metabolites; cited from earlier work.

T1 sequence (P31390 whole entry): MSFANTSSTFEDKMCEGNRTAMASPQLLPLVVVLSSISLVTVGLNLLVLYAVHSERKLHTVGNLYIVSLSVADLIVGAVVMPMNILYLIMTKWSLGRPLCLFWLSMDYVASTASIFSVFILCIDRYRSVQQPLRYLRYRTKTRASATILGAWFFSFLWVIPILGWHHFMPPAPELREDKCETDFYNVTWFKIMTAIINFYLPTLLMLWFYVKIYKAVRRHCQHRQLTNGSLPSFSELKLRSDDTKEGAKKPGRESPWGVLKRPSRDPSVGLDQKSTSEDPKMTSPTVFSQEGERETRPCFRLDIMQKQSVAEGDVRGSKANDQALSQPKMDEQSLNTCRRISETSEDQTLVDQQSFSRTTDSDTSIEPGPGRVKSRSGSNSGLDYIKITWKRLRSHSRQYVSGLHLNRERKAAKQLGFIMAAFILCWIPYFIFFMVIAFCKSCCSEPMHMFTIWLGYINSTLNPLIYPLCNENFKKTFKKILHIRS

One may read the Ki as a dissociation constant, usually derived from enzyme kinetics or from competition with a known ligand. Low values mean higher affinity, high ones lower affinity. With `CC(CO)(C(=O)O)c1ccc(C(O)CCCN2CCC(C(O)(c3ccccc3)c3ccccc3)CC2)cc1` (stereo not drawn) [4-[1-hydroxy-4-[4-(hydroxydiphenylmethyl)-1-piperidinyl]butyl]-α-(hydroxymethyl)-α-methyl-benzeneacetic acid], the affinity in data set [1] corresponds to a Ki of 360 nM.
For the compound `CC(C)(C)c1ccc(C(O)CCCN2CCC(C(O)(c3ccccc3)c3ccccc3)CC2)cc1` (stereo not drawn) [Terfenadine, α-[4-(1,1-dimethylethyl)phenyl]-4-(hydroxydiphenylmethyl)-1-piperidinebutanol], in data set [2], the first pass metabolism is recorded as 99%.
